Measured values taken from PMC10060354, “Discovery of a small molecule ligand of FRS2 that inhibits invasion and tumor growth” (Cellular Oncology, 2022).

What was measured:
[1] = system: AGS; assay: SIA, collagen I invasion; type: cell-based; conditions: Homo sapiens
Procedure: (§1) 1000—2500 cells/well in 100 μl were seeded in 96 well Corning® Spheroid microplate (CLS4520, Sigma-Aldrich) or in cell-repellent 96 well microplate (650,790, Greiner Bio-one). SIA and analysis was performed as described before. In brief: After spheroid formation (24 – 72 h after seeding), 70 µl medium was removed and replaced with the collagen mixture (2.5 mg/ml Pure Col Collagen I (Advanced Biomatrix)), DMEM 1x (from 10 × stock, Sigma, D2429) and 0.4% Sodium bicarbonate (Sigma, S8761)), resulting in a final collagen concentration of 1.75 mg/ml. Embedded spheroids were stimulated with bFGF (100 ng/ml if not otherwise stated), HGF (30 ng /ml) or EGF (20 ng/ml) and distance of invaded cells quantified 24 – 48 h after embedding. Compounds and BGJ398 were added in Dimethylsulfoxid (DMSO) and corresponding DMSO concentrations were used in control samples.

[2] = system: SKOV3; assay: SIA, collagen I invasion; type: cell-based; conditions: Homo sapiens
Procedure: as §1

[3] = system: DAOY cells; assay: SIA, EGF-induced cell invasion; type: cell-based, human; conditions: 10 µM
Procedure: as §1

[4] = system: human cancer cell lines; assay: CellTiter-Glo viability (2D culture or 3D spheroids), cell line panel; type: cell-based; conditions: for reduction of viability: DAOY, AGS and HCT116 cells, between 2.7 and 20 µM, 48 h
Procedure: Cell viability was determined using CellTiter-Glo® 2D or 3D cell viability assays (#G9242, #G9682, Promega). 500 cells/25 µl were seeded in flat bottom (#781,091, Greiner bio-one) or U-low adhesion (#4516, Corning) 384-well plate, 24 h prior to treatment. Increasing concentrations of compounds are deposited on cells using a HP Digital Drug Dispenser with DMSO total volume normalization. After 48 h, the CellTiter-Glo® 2D or 3D reagent was added (volume/volume) following manufacturer’s instructions. Plates were incubated at RT (room temperature) under agitation for 30 min and luminescence representing the number of viable cells was quantified with a Cytation 3 imaging reader (BioTek®). Experiments were performed independently three times with three technical replicas each.

[5] = Solubility at the concentration required for the biophysical assays; type: physicochemical; conditions: 5% DMSO
[6] = target: T1, FRS2_PTB (Homo sapiens, UniProt Q8WU20); assay: nano differential scanning fluorimetry (nanoDSF); type: binding; conditions: 500 μM ligand
T1 construct: FRS2-PTB 11-140aa; 6xHis; made in house; host or cells: E. coli BL21 (DE3)
T1 sequence (Q8WU20 11-140): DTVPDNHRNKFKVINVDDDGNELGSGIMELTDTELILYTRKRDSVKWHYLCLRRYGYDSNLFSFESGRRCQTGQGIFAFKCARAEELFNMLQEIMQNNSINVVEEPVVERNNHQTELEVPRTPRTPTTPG
Procedure: Assay establishment and pilot nanoDSF experiments were performed with a Tycho® system. Each experiment was performed by mixing the protein and ligand of interest at a 1:1 ratio and subsequent incubation for 15–30 min at room temperature. Controls of protein alone and ligand alone in identical buffer compositions as for the complex were measured accordingly. The temperature gradient ranged from 35 to 95 °C, and the heating rate was 30 °C/min. Inflection temperatures TI were calculated from the first derivative of the spectra obtained at the ratio of the signals at 350 nm to those at 330 nm. ΔTI of a complex was calculated as following: ΔTI,complex = TI,complex – TI,protein.
The in-built software version 1.1.5.668 (NanoTemper Technologies, Munich, Germany) and Microsoft Office Excel 365 (Microsoft Corp., Seattle, USA) was used for data analysis. Data was plotted with GraphPad Prism vers. 8.3.0 (GraphPad Software, San Diego, USA).
Purified FRS2_PTB or GB1_FRS2_PTB protein tagged with 6 × Histidine residues and the B1 immunoglobulin binding domain of the streptococcal protein G (GB1) were diluted in the protein buffer (100 mM sodium phosphate, 50 mM NaCl, 0.5 mM EDTA, 50 mM arginine, 1 mM TCEP, pH 7.0) to 30 μM, GB-1 to 40 μM. FGFR_PEP, compounds or paracetamol (PARA) as negative control were dissolved at 1 mM in the protein buffer supplemented with 10% DMSO. Compound and protein were mixed at 1:1 volume ratio yielding a final concentration of 15 μM and 20 μM for FRS2_PTB/GB1_FRS2_PTB and GB1, respectively, as well as 500 μM for FGFR_PEP or compounds. The mixture was incubated for 15 min. Each compound was measured in triplicates. Protein controls were measured in six replicates in the beginning. The quality of the screen was assessed by the Z-factor. nanoDSF validation studies were performed on a Prometheus® system in high sensitivity capillaries. Samples were heated with 1 °C/min from 20 to 95 °C. Each compound was measured in triplicates. GB1-FRS2_PTB and GB1 were diluted in the protein buffer (100 mM sodium phosphate, 50 mM NaCl, 0.5 mM EDTA, 50 mM arginine, 1 mM TCEP, pH 7.0) to 30 μM. Compounds 3.3, 3.4, 3.18 as well as the 3.18 analogues were dissolved in 100% DMSO at 50 or 100 mM and further diluted to 1 mM with a final DMSO-concentration of 100%. FGFR_PEP was dissolved at 1 mM in the protein buffer supplemented with 10% DMSO. Compound and protein were mixed at 1:1 volume ratio yielding final concentrations of 15 μM protein and 500 μM for the compounds. FGFR_PEP was measured against both GB1-FRS2_PTB and GB1, all other compounds only against GB1-FRS2_PTB. The mixture was incubated for 15 min before measurement. The data was analyzed for both the ratio of signals at 330 and 350 nm and at 350 nm alone. […]

[7] = target: T2, GB1-FRS2-PTB (Homo sapiens, UniProt Q8WU20); assay: NMR STD and WaterLOGSY ligand observation; type: binding; conditions: 25 µM GB1-FRS2-PTB, 500 µM ligand, 280 K
T2 construct: FRS2-PTB 11-140aa; 6xHis (N); made in house; host or cells: E. coli BL21 (DE3)
T2 sequence (Q8WU20 11-140): T1 sequence (Q8WU20 11-140)
Procedure: STD and WaterLOGSY experiments were measured at 7 °C on a Bruker AvNEO 600 spectrometer equipped with a TCI cryoprobe. In the STD experiments saturation was achieved by applying a series of Gaussian-shaped pulses at a RF field strength of 54 Hz (max.) for 3 s at -0.5 ppm (-40 ppm for the reference experiment) and 512 scans were accumulated. The WaterLOGSY was measured with 256 scans and a mixing time of 1.5 s. A 7.5 ms Gaussian-shaped 180° pulse was used to control the water magnetization. For both experiments samples of 25 µM GB1-FRS2_PTB with a 20-fold excess of ligand (500 µM) were used or with the ligand alone for the control experiment.

Row | SMILES | effect on EGF-induced cell invasion (result in words) [3] | reduction of viability [4] | solubility for biophysical assays (result in words) [5] | nanoDSF shift of the inflection point of the melting curve (ΔTm) [6] [°C] | binding to the PTB domain by STD and WaterLOGSY (result in words) [7] | further results
1 | O=[N+]([O-])c1c(Cl)cc(O)c2c1C1C=CCC1C(c1ccc(Cl)cc1)N2 (stereo not drawn) [Compound 7] | only moderately reduced | more than 50% | soluble in 5% DMSO |  |  | EC50 ([1]; 100 ng/ml bFGF): 4.66 µM; EC50 ([2]; SK-OV-3, 100 ng/ml bFGF): 4.5 µM; IC50 ([4]; Homo sapiens, read-out: IC50 of cell viability, all lines): < 20 µM
2 | COc1ncc(C(C)NC2CC(C)(C)NC(C)(C)C2)cc1Cl (stereo not drawn) [Compound 3.3] |  |  |  | ~1.5 |  | 
3 | O=C(O)c1c(Cl)cc(O)c2c1C1C=CCC1C(c1ccc(Cl)cc1)N2 (stereo not drawn) [Compound 13] |  |  |  |  | clearly demonstrated binding | 
4 | O=[N+]([O-])c1c(Cl)cc(O)c2c1C1C=CCC1C(c1ccc(Cl)cc1Cl)N2 (stereo not drawn) [Compound 8] |  |  | soluble in 5% DMSO |  |  | 
5 | N#Cc1c(Cl)cc(O)c2c1C1C=CCC1C(c1ccc(Cl)cc1)N2 (stereo not drawn) [Compound 14] | only moderately reduced | more than 50% |  |  |  | 
6 | CC(C)C[C@@H](CO)NCc1cc(O)c2cc(F)ccc2n1 [Compound 3.14] |  |  |  | > 2.0 | clearly demonstrated binding | inhibition at 10 µM ([1]; 10 µM): ~50%; inhibition at 10 µM ([2]; SK-OV-3, 10 µM): ~50%
